The values that follow come from the supplement of paper PMC5412046.

Where a name gives a salt, the structure may show the parent alone.

This assay deals with SB.msgc-1. As to the kind of experiment: AC50 for growth inhibition (viability) (log10 M); higher = less potent. The conditions noted are these: SB.msgc-1 (sporadic gastric cancer). A digest of the protocol: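 Dosing used a pintool to add 23 nL compound in DMSO to 1536 wells, each with 500 hereditary or sporadic patient-derived gastric cancer cells, across 11 threefold dilutions starting at a final 46 μM. Viability after 48 h was measured by CellTiter-Glo luminescence on a ViewLux. The log half-maximal activity concentration derives from a four-parameter fit of that viability normalised to DMSO, limited to high-quality curve classes.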
For `Cc1nc(N)sc1-c1ccnc(Nc2ccc(N3CCOCC3)cc2)n1` [CYC-116], the “AC50 for growth inhibition (log10 M)” value was -4.63. As for `CCCNC(=O)Nc1ccc(Oc2ncnc3cc(OC)c(OC)cc23)cc1Cl` [KRN-633], the “AC50 for growth inhibition (log10 M)” value was -4.68. For `Cc1cc(OCCC[S+](C)(=O)[O-])cc(C)c1-c1cccc(COc2ccc3c(c2)OC[C@H]3CC(=O)O)c1` [TAK-875] the value was -4.78; for `CN1C(=O)C(=C\C2=C1N=C(NC3=CC=CC(=C3)C(O)=O)N=C2)/C4=C(Cl)C=CC=C4Cl`, -5.78; for `COC1=CC=C(C=C1)C/2=C(OC3O[C@@H](C)[C@H](O)[C@@H](O)[C@H]3O)/C(=O)C4=C(O2)C(=C(OC5O[C@H](CO)[C@@H](O)[C@H](O)[C@H]5O)C=C4O)CC=C(C)C` (some centres not stated) [Icariin], -4.93. With `Nc1ncnc2c1ncn2[C@@H]1O[C@H](CO)C[C@H]1O` [Cordycepin], the “AC50 for growth inhibition (log10 M)” value was -4.73. `CN(C)CCCC1(c2ccc(F)cc2)OCc2cc(C#N)ccc21` (configuration not stated) [Citalopram hydrobromide]: the “AC50 for growth inhibition (log10 M)” value is -4.83.

Turning to `C[C@H](NCc1ccc2c(c1)nc(NC(=O)c1ccc(-c3cn[nH]c3)s1)n2CCc1ccccc1)C(C)(C)C`, the “AC50 for growth inhibition (log10 M)” value is -6.03.

Consider `CCOP(=O)(OCC)C(C)NC(=O)N(CCCl)N=O` (configuration not stated) [Fotemustine], for which the “AC50 for growth inhibition (log10 M)” value was -5.13. For `Cc1onc(-c2ccccc2Cl)c1C(=O)N[C@@H]1C(=O)N2[C@@H]1SC(C)(C)[C@@H]2C(=O)[O-]` [Sodium cloxacillin] the value was -5.48; for `C[C@H](Cc1ccc(O)c(O)c1)[C@@H](C)Cc1ccc(O)c(O)c1` [Masoprocol], -4.83. For `O=C(Nc1ccccc1Br)N[C@@H]1CCN(c2ccc(C(F)(F)F)cn2)C1` the value was -4.73; for `CC(=O)N(C)c1cccc(-c2ccnc3c(C(=O)c4cccs4)cnn23)c1` [Indiplon], -4.68; for `Cc1ccc(NC(=O)c2ccc(CN3CCN(C)CC3)cc2)cc1Nc1nc(-c2cccnc2)cs1` [Masitinib], -4.93. For `CCC[C@@H](NC(=O)[C@@H]1[C@H]2CCC[C@H]2CN1C(=O)[C@@H](NC(=O)[C@@H](NC(=O)c1cnccn1)C1CCCCC1)C(C)(C)C)C(=O)C(=O)NC1CC1` [Telaprevir] the value was -4.78; for `Cc1csc(-c2nnc(Nc3ccc(Oc4ncccc4-c4ccnc(N)n4)cc3)c3ccccc23)c1` [AMG-900], -4.68; for `Cl.O[C@@H](CNC[C@H](O)[C@H]1CCc2cc(F)ccc2O1)[C@@H]1CCc2cc(F)ccc2O1` [Nebivolol], -4.93. Take `CCCCCCCCCCCC/1=C(O)/C(=O)/C=C(O)\C1=O` [Embelin]: the “AC50 for growth inhibition (log10 M)” value was -6.03. For `C[C@@H](N)c1ccc(C(=O)Nc2ccnc3[nH]ccc23)cc1` the value was -4.78; for `CCOC(=O)N[C@@H]1CC[C@@H]2[C@@H](C1)C[C@H]1C(=O)O[C@H](C)[C@H]1[C@H]2/C=C/c1ccc(-c2cccc(F)c2)cn1` [Vorapaxar], -4.78; for `FC1=CC=C(SC/2=N/N3\C=N/C(=O)/C(=C3/C=C2)C4=C(Cl)C=CC=C4Cl)C(=C1)F` [VX-745], -4.73.

As to `CC[C@@H]1C(=O)N(C)c2cnc(Nc3ccc(C(=O)NC4CCN(C)CC4)cc3OC)nc2N1C1CCCC1` [BI-2536], the “AC50 for growth inhibition (log10 M)” value was -7.28. For `CN1C(=O)/C(=C(NC2=CC=C(I)C=C2F)\C3=C1\N=C/N(C[C@@H](O)CO)C3=O)F` [TAK-733] the value was -6.48.

As for `O=C(Nc1cccc(C(F)(F)F)c1)Nc1cc([S+](=O)([O-])NC2CC2)ccc1-c1ccsc1` [AGI-6780], the “AC50 for growth inhibition (log10 M)” value was -4.73. For `COCCOC(=O)C/1=C(C)/NC/2=C(C1C3=CC=CC(=C3)O)/C(=O)CC(C2)C4=C(OC)C=CC=C4` (configuration not stated) [HPI-1] the value was -4.73; for `N=C(N)NC(=N)NCCc1ccccc1` [Phenformin hydrochloride], -5.88; for `COc1ccc(CCC(=O)Nc2nc3ccc(Cl)cc3s2)cc1OC`, -4.63. For `CC[C@@]1(O)C(=O)OC\C2=C1\C=C3/N(CC4=CC5=C(C=CC(=C5CN(C)C)O)N=C34)C2=O` [Topotecan hydrochloride] the value was -6.73; for `OCc1ccc(-c2ccc(-c3ccc(CO)s3)o2)s1` [RITA], -4.93; for `CCCCCCCCCCCC(CC1OC(=O)C1CCCCCC)OC(=O)C(CC(C)C)NC=O` (configuration not stated) [Orlistat], -4.78. For `O=C(O)CCC1CCC(c2cc(F)ccc2F)([S+](=O)([O-])c2ccc(Cl)cc2)CC1` (configuration not stated) [MK-0752] the value was -4.98; for `Nc1cccc([S+](=O)([O-])N2CCCN([S+](=O)([O-])c3ccc4c(c3)OCCO4)CC2)c1`, -4.88. `CNC1[C@@H](O)C(O[C@@H]2C(O)C(O[C@H]3O[C@H]([C@@H](C)NC)CC[C@H]3N)[C@@H](N)C[C@H]2N)OC[C@]1(C)O` (some centres not stated) [Gentamycin sulfate]: the “AC50 for growth inhibition (log10 M)” value is -4.73. For `Oc1nc(-c2ccc(C(F)(F)F)cc2)nc2c1CSCC2` [NVP-XAV-939] the value was -4.68. For `CC[C@H](CO)Nc1nc(NCc2ccccc2)c2ncn(C(C)C)c2n1` [Seliciclib] the value was -4.68. For `Cn1cnc(N)c2ncnc1-2` [3-Methyladenine] the value was -5.28; for `O=c1[nH]c2ccccc2n1C1CCN(Cc2ccc(-c3nc4cc5nc[nH]c5cc4nc3-c3ccccc3)cc2)CC1` [AKT inhibitor VIII], -4.83; for `CC(=O)Oc1cc2c(s1)CCN(C(C(=O)C1CC1)c1ccccc1F)C2.Cl` (configuration not stated) [Prasugrel], -6.08. In the case of `S=C1N\C=N/C2=C1[NH]C=N2` [6-mercaptopurine], the “AC50 for growth inhibition (log10 M)” value is -5.63. For `CC[C@H](/C=C/[C@@H](C)[C@H]1CC[C@H]2[C@@H]3CC=C4C[C@@H](O)CC[C@]4(C)[C@H]3CC[C@]12C)C(C)C` [Stigmasterol], the “AC50 for growth inhibition (log10 M)” value was -5.19. For `CC(C)[C@H]1C(=O)N[C@H](CO)Cc2c[nH]c3cccc(c23)N1C` [(-)-Indolactam V] the value was -6.43. For `CC1(C)CCC(C)(C)c2cc(NC(=O)c3ccc(C(=O)O)cc3)ccc21` [Tamibarotene] the value was -5.38; for `C[C@]12CCC(=O)C=C1CC[C@@H]1[C@@H]2CC[C@@]2(C)[C@H]1CC[C@]2(C)O` [Methyltestosterone], -4.42. For `O=[N+]([O-])c1ccc(Nc2ccccc2-c2ccccc2)c2nonc12` the value was -4.53. Turning to `C=C[C@H]1CN2CCC1C[C@H]2[C@H](O)c1ccnc2ccccc12` (some centres not stated) [Cinchonidine], the “AC50 for growth inhibition (log10 M)” value is -4.98. For `CN1CCN(c2cccc(Nc3nc4c(-c5ccc([S+](C)(=O)[O-])cc5)cccn4n3)c2)CC1`, the “AC50 for growth inhibition (log10 M)” value is -4.78. Take `CC(C)c1cc(C(C)C)c(CC(=O)N[S+](=O)([O-])Oc2c(C(C)C)cccc2C(C)C)c(C(C)C)c1` [Avasimibe]: the “AC50 for growth inhibition (log10 M)” value was -4.78. For `Nc1nc(NCCNc2ncc(-n3ccnc3)c(-c3ccc(Cl)cc3Cl)n2)ccc1[N+](=O)[O-]` the value was -5.68; for `Cc1ncc(-c2ccnc(Nc3ccc([S+](C)(=O)[O-])cc3)n2)n1C(C)C` [AZD-5438], -5.78. For `C/C=C/C(=O)N(CC)c1ccccc1C` [Crotamiton] the value was -4.98. For `Clc1ccc(C(Cn2ccnc2)OCc2ccsc2Cl)c(Cl)c1` (configuration not stated) [Tioconazole] the value was -4.63; for `O=C(CS(=O)Cc1ccco1)NC/C=C\COc1cc(CN2CCCCC2)ccn1` (configuration not stated) [Lafutidine], -5.08. As for `CCCCC[C@H](O)/C=C/[C@H]1[C@H](O)CC(=O)[C@@H]1C/C=C\CCCC(=O)O` [Prostaglandin E2], the “AC50 for growth inhibition (log10 M)” value is -5.18. For `CC(=O)[C@H]1CC[C@H]2[C@@H]3CCC4=CC(=O)CC[C@]4(C)[C@H]3CC[C@]12C` [Progesterone] the value was -4.78; for `CC1(C)[C@H](C(=O)O)N2C(=O)C[C@H]2[S+]1(=O)[O-]` [Sulbactam], -4.83. For `CNC(=O)c1ccc2c(c1)NC(=O)/C2=C(\Nc1cccc(CN(C)C)c1)c1ccccc1`, the “AC50 for growth inhibition (log10 M)” value was -4.93. For `NC\1=N\C(=O)N(\C=C1)[C@@H]2O[C@H](CO)[C@@H](O)[C@@H]2O` [Cytarabine] the value was -7.18. For `O=C/1\C=C(/OC(=C1)/C2=C3SC4=C(SC3=CC=C2)C=CC=C4)N5CCOCC5` [KU-0064] the value was -4.63; for `CCOC(=O)c1ncn2c1CN(C)C(=O)c1cc(F)ccc1-2` [Flumazenil], -4.63. For `CCc1cccc(CC)c1NC(=O)N1Cc2[nH]nc(NC(=O)c3ccc(N4CCN(C)CC4)cc3)c2C1` the value was -4.63; for `N#CC1(c2cccc(C(=O)Nc3cc(Oc4ccc5nc(NC(=O)C6CC6)sc5n4)ccc3F)c2Cl)CC1` [Takeda-6d], -5.73. Regarding `O=C(O)Cn1nnc(-c2cc(N3CCC(Oc4cc(F)ccc4Br)CC3)no2)n1` [MK-8245], the “AC50 for growth inhibition (log10 M)” value is -5.48.
